Source: US20240299353A1, “COMPOSITIONS AND METHODS FOR TREATING […] 5-MEO-DMT” (Alvarius Pharmaceuticals Ltd., priority 2021, published 2024)

How the values were obtained:
hippocampal proteins = experiment: Hippocampal LC-MS/MS proteomics, chronic cocaine with single psychedelic administration; type: in vivo, Male Wister rats
Experimental: Animals were then randomly allocated to one of five groups and received a single i.p. injection of one of vehicle, 5 mg/kg 5-Meo-DMT, 0.14 mg/kg LSD, 1 mg/kg psilocybin, or 1 mg/kg DOI. On day 15, animals were euthanised and the hippocampus blunt dissected, snap frozen in liquid nitrogen and stored at −80° C. until further processing.
Protein from hippocampal tissue was processed for liquid chromatography tandem Mass Spectrometry (LC-MS/MS). Samples were run on a Thermo Scientific Q Exactive Mass Spectrometer connected to a Dionex Ultimate 3000 (RSLCnano) chromatography system in the UCD Conway Institute Core Mass Spectrometry Facility. Peptide and protein identification of MS/MS spectra were searched against the rat UniProt database using carbamidomethylation (C) as a fixed modification and acetylation (protein N terminus) and oxidation (M) as variable modifications with a false discovery rate filtering of 0.01. MaxQuant was using to generate label-free quantitative (LFQ) ion intensities and the Perseus statistical software contained in the MaxQuant package was used to analyse LFQ ion intensity. Statistical significance (p<0.05, FC±20%) of mean LFQ intensity between treatment groups was determined by two sample t-test. […] Networks were visualised using the stringApp (version 1.6.0) plugin for the Cytoscape software platform (version 3.8.2).

[1] = tested on: primary hippocampal neurons; experiment: Structural plasticity of cultured hippocampal neurons, Sholl analysis; type: cell-based, rat; conditions: for normalised AUC of the Sholl plot (dendritic arbor complexity): 24 h 5-MeO-DMT (20 μM) or cocaine (25 μM) alone, vs control; for maximum number of intersections (Nmax): FIG. 38C, all treatment groups
Excerpt: Primary Culture—Primary hippocampal neurons were derived from the hippocampi of embryonic day 18 (E18) rat embryos, as described previously (Seibenhener, M. L. & M. W. Wooten (2012) Isolation and Culture of Hippocampal Neurons from Prenatal Mice. Journal of Visualized Experiments: JoVE, 3634). Briefly, the brains were removed from the skull and stored in cooled Hank's Balanced Salt Solution (HBSS). The hippocampus was isolated under a dissection microscope and digested using 0.05% Trypsin (Gibco) in HBSS for 10 mins after which trypsinisation was stopped by the addition of 2% foetal calf serum (Gibco). Isolated cells were suspended in plating media and viable cells were counted with a haemocytometer using trypan blue (Gibco) staining. Cells were plated at a density of 1×10^6 cells/well on 12-well plates coated with 0.02% Poly-DL-ornithine hydrobromide (Sigma). After plating, cells were incubated at 37° C. in humidified air with 5% C02. Half medium changes were performed every 2-3 days with L-glutamic acid no longer included in the media after 3 DIV.
Immunocytochemistry—Primary hippocampal neurons grown on 18 mm diameter glass coverslips were fixed in 70% ethanol (EtOH) for 20 mins. After fixing, cells were permeabilised in 0.2% Triton X-100 (Thermo Fisher) in PBS and washed in PBS. Cells were blocked in 1% BSA (Sigma) in PBS for 45 mins. Following blocking, cells were incubated with primary antibodies in 5% BSA and 5% normal goat serum (Agilent) for 2 hours in a humidity chamber at room temperature or overnight at 4° C. Cells were rinsed in PBS and incubated with 1 ug/ml 4′,6-Diamidine-2′-phenylindole dihydrochloride (DAPI) (Thermo Fisher) for 10 mins. Coverslips were mounted on microscope slides using mounting medium containing mowiol 4-88 (Sigma), stored in the dark at 4° C. and were imaged within 7 days of mounting. Images were captured on a Zeiss AxioImager M1 fluorescent microscope using a x40 oil immersion lens. 10 images were taken per coverslip and images were analyzed by a customized R script (Appendix I) using EBImage by Bioconductor Ver 3.7. Briefly, DAPI staining was used as a nuclear reference with a threshold of a minimal radius and fluorescent intensity implemented to differentiate DAPI-labelled nuclei against cell debris or non-specific binding. A watershed command in the R script was used to ensure segmentation and identification of nuclei which may be tightly clustered as distinct objects. The nuclei were dilated using kernel expansion to designate the soma region surrounding the nucleus. A distance map was generated for each image which calculates the distance of each foreground pixel (white) to the nearest background pixel (black). Protein expression was measured as the average pixel fluorescence intensity for each cell in each channel. In all experiments cells were stained with an antibody for NeuN, a protein specifically expressed in neurons, to localise protein changes to the neuronal or non-neuronal cellular populations in the culture. Proteins assessed by ICC were 5-HT1AR (FIG. 7A), 5-HT2AR (FIG. 7B).
Primary hippocampal cultures were grown on 18 mm glass coverslips at a density of 1×10^6 cells as described. On 3 DIV all cells underwent a full medium change. […] On 4 DIV, all cells underwent a second full medium change. Cells in the combination group were treated with 2 μM 5-MeO-DMT for a further 24 hours with all other groups beginning a 24-hour treatment. After treatment was completed the cells were fixed and processed as described below.
After termination of drug treatment coverslips were processed and imaged as outlined for immunocytochemistry. In all instances NeuN antibody staining was used to visualize projections from the cell body. Images were analyzed using the Simple Neurite Tracer and Sholl analysis plug-ins for ImageJ Fiji. For the Sholl analysis circle radii of 2 μm increments were used. All images were taken and analyzed by an experimenter blinded to treatment conditions. […]

SMILES	differential expression of proteins in the control hippocampus (hippocampal proteins; single i.p. dose (5-MeO-DMT 5 mg/kg, LSD 0.14 mg/kg, psilocybin 1 mg/kg, DOI 1 mg/kg) vs saline-saline, p<0.05, FC ±20%) [proteins]	differential expression of proteins in the chronic cocaine hippocampus (hippocampal proteins; single i.p. dose after 14 days cocaine 20 mg/kg (5-MeO-DMT 5, LSD 0.14, psilocybin 1, DOI 1 mg/kg) vs cocaine-saline) [proteins]	reversal of chronic cocaine mediated proteomic changes in the hippocampus (hippocampal proteins; single treatment (5-MeO-DMT 5, LSD 0.14, psilocybin 1, DOI 1 mg/kg i.p.)) [%]	normalised AUC of the Sholl plot (dendritic arbor complexity) ([1]; FIG. 38B)	normalised AUC of the Sholl plot ([1]; FIG. 38B, 24 h cocaine followed by 24 h 5-MeO-DMT)	maximum number of intersections (Nmax) [1]	average neurite length ([1]; FIG. 38D, cocaine followed by 5-MeO-DMT)	significantly regulated proteins in the hippocampus between saline and cocaine (hippocampal proteins; cocaine 20 mg/kg i.p. daily for 14 days) [proteins]
COc1ccc2[nH]cc(CCN(C)C)c2c1 [5-MeO-DMT, 5-methoxy-N,N-dimethyltryptamine]	64	74	77	increase dendritic arbor complexity	increased the normalised AUC relative to either compound alone	unchanged between treatment groups	significantly increased the average neurite length relative to both the control and cocaine alone treatment groups	
COC(=O)[C@H]1[C@@H](OC(=O)c2ccccc2)C[C@@H]2CC[C@H]1N2C.Cl [cocaine, cocaine hydrochloride, reference compound]				increase dendritic arbor complexity		unchanged between treatment groups		85
